Patent publication US11998610B2, “Conjugates and methods of using the same” (Flagship Pioneering Innovations V, Inc., priority 2018, dated 2024)
Non-standard residues stand in square brackets, D forms with d. Residues, ends and D or L forms follow the SMILES beside them. *: point of attachment. Myristoyl = CCCCCCCCCCCCCC(=O)*; Octanoyl = CCCCCCCC(=O)*

What was measured:
[1] = Stability of conjugates in Simulated Gastric Fluid (SGF); format: in vitro ADME; conditions: simulated gastric fluid pH 1.6 with pepsin, 1 μM, 37° C.
Procedure, shortened: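 Compounds at 1 μM (from 1 mM DMSO stock) were incubated at 37°C in simulated gastric fluid, NaCl pH 1.6 with FaSSIF powder and 0.1 mg/mL pepsin. Aliquots taken at T0 and regular intervals were quenched with an equal volume of acetonitrile and analysed by LC/MS for degradation rate.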

[2] = Stability of conjugates in Simulated Intestinal Fluid (SIF); format: in vitro ADME; conditions: simulated intestinal fluid pH 6.7 with pancreatin, 1 μM, 37° C.
Description: Assay 2. Stability of conjugates in Simulated Intestinal Fluid (SIF). This assay was used to assess the stability of a conjugate in a small intestine. Phosphate buffer was prepared by dissolving 0.42 g of sodium hydroxide pellets and 3.95 g of monobasic sodium phosphate monohydrate and 6.19 g of sodium chloride in ultrapure water (MilliQ®, Millipore Sigma, Darmstadt, Germany). The pH was adjusted to 6.7 using aq. HCl and aq. NaOH, as necessary, and the solution was diluted with ultrapure water to produce 1 L of the pH 6.7 buffer. 112 mg FaSSIF powder (Biorelevant™, London, UK) was dissolved in 50 mL of the pH 6.7 buffer. 2 to 3 mL of the resulting solution were then added to 500 mg pancreatin (Millipore Sigma, Darmstadt, Germany). The resulting mixture was agitated by finger tapping the vessel containing the mixture until milky suspension formed. At this time, the remainder of the 50 mL FaSSiF/pH 6.7 buffer solution was added. The resulting suspension was flipped upside down 10 times to produce SIF, which was used fresh. Test compounds were dissolved in DMSO stock to 1 mM. An aliquot of the DMSO stock solution was removed and diluted in the SIF media in 15 mL falcon tubes to produce a mixture with a tested compound concentration of 1 μM. A 1 mL aliquot was immediately removed and diluted once with 1 volume of acetonitrile for T0 timepoint. The mixture was sealed and agitated at 37° C. in an incubator. Aliquots (1 mL) were removed at regular intervals and immediately quenched by the addition of 1 volume of acetonitrile. The resulting samples were analyzed by LC/MS to determine degradation rates

Compound	Assay 1 (SGF) (% Remaining @ 1 hours) [1]	Assay 2 (SIF) (% @ Remaining 4 hours) [2]
CCCCCCCC(=O)N[C@H](CCCNC(=N)N)C(=O)N[C@@H](C)C(=O)OC [Example 11, Methyl octanoyl-D-arginyl-L-alaninate] (Octanoyl-[dR]-Ala-OMe)	C (>75% of the tested compound remaining)	A (<25% of the tested compound remaining)
CCCCCCCC(=O)N[C@H](CCC(N)=O)C(=O)N[C@@H](C)C(=O)OC [Example 10, Methyl octanoyl-D-glutaminyl-L-alaninate] (Octanoyl-[dQ]-Ala-OMe)	C (>75% of the tested compound remaining)	C (>75% of the tested compound remaining)
COC(=O)[C@H](C)NC(=O)[C@@H](CC(N)=O)NC(=O)[C@@H](C)c1ccc2cc(OC)ccc2c1 [Example 18, Methyl ((S)-2-(6-methoxynaphthalen-2-yl)propanoyl)-D-asparaginyl-L-alaninate]	C (>75% of the tested compound remaining)	A (<25% of the tested compound remaining)
CCCCCCCCCCCCCC(=O)N[C@H](CC(N)=O)C(=O)N[C@@H](C)CCC(=O)O[C@]1(CC)C(=O)OCc2c1cc1n(c2=O)Cc2c-1nc1ccc(O)cc1c2CC [Example 35, (S)-4,11-diethyl-9-hydroxy-3,14-dioxo-3,4,12,14-tetrahydro-1H-pyrano[3′,4′:6,7]indolizino[1,2-b]quinolin-4-yl (S)-4-((R)-4-amino-4-oxo-2-tetradecanamidobutanamido)pentanoate]	C (>75% of the tested compound remaining)	C (>75% of the tested compound remaining)
CCCCCCCCCCCCCC(=O)N[C@H](CC(N)=O)C(=O)Nc1ccc(COC)cc1 [Example 22, (R)—N1-(4-(methoxymethyl)phenyl)-2-tetradecanamidosuccinamide]	C (>75% of the tested compound remaining)	C (>75% of the tested compound remaining)
CCCCCCCC(=O)N[C@@H](CC(N)=O)C(=O)N[C@@H](C)C(=O)OC [Example 4, Methyl octanoyl-L-asparaginyl-L-alaninate] (Octanoyl-Asn-Ala-OMe)	C (>75% of the tested compound remaining)	A (<25% of the tested compound remaining)
CCCCCCCC(=O)N[C@H](CC(N)=O)C(=O)N[C@H](C)C(=O)OC [Example 5, Methyl octanoyl-D-asparaginyl-D-alaninate] (Octanoyl-[dN]-[dA]-OMe)	C (>75% of the tested compound remaining)	C (>75% of the tested compound remaining)
CCCCCCCC(=O)N[C@H](CC(N)=O)C(=O)N[C@H](C(=O)OC)C(C)C [Example 6, Methyl octanoyl-D-asparaginyl-L-valinate] (Octanoyl-[dN]-Val-OMe)	C (>75% of the tested compound remaining)	A (<25% of the tested compound remaining)
CCCCCCCC(=O)N[C@H](CC(N)=O)C(=O)N[C@@H](CC(C)C)C(=O)OC [Example 7, Methyl octanoyl-D-asparaginyl-L-leucinate] (Octanoyl-[dN]-Leu-OMe)	C (>75% of the tested compound remaining)	A (<25% of the tested compound remaining)
CCCCCCCCCCCCCC(=O)N[C@H](CC(N)=O)C(=O)NCCCC(=O)OC [Example 20, Methyl (R)-4-(4-amino-4-oxo-2-tetradecanamidobutanamido)butanoate]	C (>75% of the tested compound remaining)	B (25-75% of the tested compound remaining)
CCCCCCCCCCCCCC(=O)N[C@H](CC(N)=O)C(=O)N[C@@H](C)C(=O)OC [Example 1, Methyl tetradecanoyl-D-asparaginyl-L-alaninate] (Myristoyl-[dN]-Ala-OMe)	C (>75% of the tested compound remaining)	A (<25% of the tested compound remaining)
CCCCCCCC(=O)N[C@H](CC(N)=O)C(=O)N[C@@H](C)C(=O)OC [Example 2, Methyl octanoyl-D-asparaginyl-L-alaninate] (Octanoyl-[dN]-Ala-OMe)	C (>75% of the tested compound remaining)	A (<25% of the tested compound remaining)
CCCCCCCC(=O)N[C@H](CCC(=O)O)C(=O)N[C@@H](C)C(=O)OC [Example 9, (R)-5-(((S)-1-methoxy-1-oxopropan-2-yl)amino)-4-octanamido-5-oxopentanoic acid] (Octanoyl-[dE]-Ala-OMe)	C (>75% of the tested compound remaining)	B (25-75% of the tested compound remaining)
CCCCCCCC(=O)N[C@H](CC(N)=O)C(=O)NCCN(C)C(=O)Oc1ccc2c(C)cc(=O)oc2c1 [Example 70, 4-methyl-2-oxo-2H-chromen-7-yl (R)-(2-(4-amino-2-octanamido-4-oxobutanamido)ethyl)(methyl)carbamate]	C (>75% of the tested compound remaining)	C (>75% of the tested compound remaining)
CCCCCCCCCCCCCC(=O)N[C@H](CC(N)=O)C(=O)N[C@@H](C)CCC(=O)OC [Example 21, Methyl (S)-4-((R)-4-amino-4-oxo-2-tetradecanamidobutanamido)pentanoate]	C (>75% of the tested compound remaining)	C (>75% of the tested compound remaining)
